Among the data in PubChem BioAssay (NCI) are GI50 and TGI values, retold here.

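Grown in 96-well plates, cells were treated for 48 hours with each compound at five concentrations. Insufficient inhibition: endpoint recorded as highest concentration tested. The concentration for 50% growth inhibition is given as GI50. TGI is the concentration that stops growth completely.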

The first experiment relates to HOP-62 NSCLC. The experiment in a line: NCI anticancer screen, dose series, 48 h.
Take `COc1cc(/C=C/c2cc(O)c(C(C)=O)c(O)c2)cc2c1O[C@]1(C)CC[C@@H](O)C(C)(C)[C@H]1C2`: the GI50 is 4.56 µM and the TGI came to 48.4 µM.

On to `OC(c1nc2ccccc2[nH]1)C(O)C(O)C(O)c1nc2ccccc2[nH]1` (configuration not stated), for which the TGI is > 100 µM.

Consider `Cc1cc(O)c(/C=N/C(=S)NCc2ccccc2)c(=O)o1`, for which the TGI was > 100 µM.

For the compound `O=C(CSc1ccc(Cl)cc1)Nc1ccc(-c2nc3ccccc3s2)c(Cl)c1`, the GI50 was 5.91 µM and the TGI came to 24.8 µM.

Turning to `COc1cc2c3c(n(C)c(=O)c2cc1OC)-c1cc2c(cc1/C3=C\CCN)OCO2`, the GI50 is 0.067 µM and the TGI was determined as 5.8 µM.

A further experiment relates to MDA-MB-435. The experiment in a line: NCI anticancer screen, dose series, 48 h.
As for `CN(C(=O)c1ccc(C(F)(F)F)cc1)c1ccc(Oc2ccc3c(c2)cc(C(=O)N2CCN(Cc4ccc(OC(F)F)cc4)CC2)n3C)nc1`, the GI50 is 3730 nM and the TGI was > 100 µM.

As for `Cc1cc(-c2ccc3nc(C4CCOCC4)n(CCOC(F)(F)F)c3c2)cn(C)c1=O`, the GI50 was 210 nM and the TGI was > 47.5 µM.

For `Nc1ncnc2c1nnn2C1OC(CO)C(O)C1O` (configuration not stated), the GI50 is 273 nM and the TGI turned out to be 2.44 µM.

For `NC1(C(=O)OCc2ccccc2)CCCC1`, the TGI was determined as 41.2 µM.

In the case of `O=C(/C=C/c1ccc(Cl)cc1)c1ccc(Nc2ccnc3cc(Cl)ccc23)cc1`, the GI50 is 9300 nM and the TGI is > 100 µM.

For the compound `COc1cc(C2c3cc4c(cc3OC(C)(O)C2C)OCO4)cc(OC)c1OC` (configuration not stated), the TGI is > 100 µM.

The compound `COc1cc2c(c(OC)c1OC)-c1ccc(OC)c(=O)cc1C(NC(=O)c1ccc(N=[N+]=[N-])cc1)CC2` (configuration not stated) returned a TGI of 0.0473 µM.

`C=C1C(=O)O[C@H]2[C@H]1CC/C(COC(=O)c1c[nH]c3ccccc13)=C\CC[C@@]1(C)O[C@@H]21`: the GI50 is 242 nM and the TGI stood at 0.654 µM.

Consider `CC(=O)[C@@]12O[C@@H]1CC1C3CCC4=CC(O)CCC4(C)C3CCC12C` (some centres not stated), for which the GI50 is > 100000 nM and the TGI is > 100 µM.

Regarding `CCN1CCN(c2nc(C)cc(N(CCNc3ccnc4cc(Cl)ccc34)Cc3ccc4c(c3)OCO4)n2)CC1`, the GI50 is 1700 nM and the TGI amounted to 3.25 µM.

In turn, `C=C(Br)C(C)(Br)CCC(Br)C(C)(C)Cl` (configuration not stated) showed a TGI of 41.9 µM.

On to `Cc1ccccc1S(=O)(=O)OC1NS(=O)(=O)c2ccccc21` (configuration not stated), for which the TGI is > 100 µM.

Consider `COc1cc2c3c(n(C)c(=O)c2cc1OC)-c1cc2c(cc1/C3=C\CCCN)OCO2`, for which the GI50 was 8600 nM and the TGI turned out to be 41.6 µM.

Consider `COc1ccc(-c2nnc(COc3ccc(NC(=O)Nc4cc(C(F)(F)F)cc(C(F)(F)F)c4)cc3F)o2)cc1`, for which the GI50 was 2110 nM and the TGI turned out to be 5 µM.

As to `COc1cc(/C=C/c2cc(O)c(C(C)=O)c(O)c2)cc2c1O[C@]1(C)CC[C@@H](O)C(C)(C)[C@H]1C2`, the GI50 was 7380 nM and the TGI was 57.2 µM.

Consider `OC(c1nc2ccccc2[nH]1)C(O)C(O)C(O)c1nc2ccccc2[nH]1` (configuration not stated), for which the TGI was > 100 µM.

For the compound `Cc1cc(O)c(/C=N/C(=S)NCc2ccccc2)c(=O)o1`, the TGI was > 100 µM.

Take `O=C(CSc1ccc(Cl)cc1)Nc1ccc(-c2nc3ccccc3s2)c(Cl)c1`: the GI50 was 3720 nM and the TGI turned out to be 35.4 µM.

Take `COc1cc2c3c(n(C)c(=O)c2cc1OC)-c1cc2c(cc1/C3=C\CCN)OCO2`: the GI50 is 538 nM and the TGI was found to be 9.56 µM.

The next experiment relates to SF-268 CNS. Nature of the experiment: NCI anticancer screen, dose series, 48 h.
Take `CN(C(=O)c1ccc(C(F)(F)F)cc1)c1ccc(Oc2ccc3c(c2)cc(C(=O)N2CCN(Cc4ccc(OC(F)F)cc4)CC2)n3C)nc1`: the GI50 is > 100 µM and the TGI is > 100 µM.

For `Cc1cc(-c2ccc3nc(C4CCOCC4)n(CCOC(F)(F)F)c3c2)cn(C)c1=O`, the GI50 is 1.65 µM and the TGI amounted to 80.2 µM.

`Nc1ncnc2c1nnn2C1OC(CO)C(O)C1O` (configuration not stated) displayed a TGI of 18.8 µM.

The compound `NC1(C(=O)OCc2ccccc2)CCCC1` yielded a TGI of 31.4 µM.

As to `O=C(/C=C/c1ccc(Cl)cc1)c1ccc(Nc2ccnc3cc(Cl)ccc23)cc1`, the GI50 was > 84 µM and the TGI was > 100 µM.

As to `COc1cc(C2c3cc4c(cc3OC(C)(O)C2C)OCO4)cc(OC)c1OC` (configuration not stated), the TGI is > 100 µM.

For the compound `COc1cc2c(c(OC)c1OC)-c1ccc(OC)c(=O)cc1C(NC(=O)c1ccc(N=[N+]=[N-])cc1)CC2` (configuration not stated), the TGI is > 100 µM.

For the compound `C=C1C(=O)O[C@H]2[C@H]1CC/C(COC(=O)c1c[nH]c3ccccc13)=C\CC[C@@]1(C)O[C@@H]21`, the GI50 was 0.294 µM and the TGI was 1.07 µM.

With `CC(=O)[C@@]12O[C@@H]1CC1C3CCC4=CC(O)CCC4(C)C3CCC12C` (some centres not stated), the GI50 was 83.5 µM and the TGI is > 100 µM.

For the compound `CCN1CCN(c2nc(C)cc(N(CCNc3ccnc4cc(Cl)ccc34)Cc3ccc4c(c3)OCO4)n2)CC1`, the GI50 was 2.09 µM and the TGI came out at 5.81 µM.

Take `C=C(Br)C(C)(Br)CCC(Br)C(C)(C)Cl` (configuration not stated): the TGI was 36.1 µM.

For `Cc1ccccc1S(=O)(=O)OC1NS(=O)(=O)c2ccccc21` (configuration not stated), the TGI is > 100 µM.

Take `COc1cc2c3c(n(C)c(=O)c2cc1OC)-c1cc2c(cc1/C3=C\CCCN)OCO2`: the GI50 is 4.93 µM and the TGI is 66.9 µM.

Regarding `COc1ccc(-c2nnc(COc3ccc(NC(=O)Nc4cc(C(F)(F)F)cc(C(F)(F)F)c4)cc3F)o2)cc1`, the GI50 was 3.04 µM and the TGI is 9.94 µM.

Take `COc1cc(/C=C/c2cc(O)c(C(C)=O)c(O)c2)cc2c1O[C@]1(C)CC[C@@H](O)C(C)(C)[C@H]1C2`: the GI50 was 5.86 µM and the TGI came out at 55.2 µM.

Consider `OC(c1nc2ccccc2[nH]1)C(O)C(O)C(O)c1nc2ccccc2[nH]1` (configuration not stated), for which the TGI was > 100 µM.

Take `Cc1cc(O)c(/C=N/C(=S)NCc2ccccc2)c(=O)o1`: the TGI is > 100 µM.

For the compound `O=C(CSc1ccc(Cl)cc1)Nc1ccc(-c2nc3ccccc3s2)c(Cl)c1`, the GI50 is 3.24 µM and the TGI was determined as 22.4 µM.
